Laboratory results as given in BigSolDB 2.1.

CP(=O)(c1ccccc1)c1ccccc1
Conditions | solubility (mole fraction)
in benzene, 288.52 K | 0.0439
in benzene, 293.56 K | 0.0573
in benzene, 298.13 K | 0.0698
in benzene, 303.21 K | 0.0875
in benzene, 308.12 K | 0.102
in benzene, 312.55 K | 0.123
in benzene, 318.04 K | 0.156
in benzene, 323.17 K | 0.183
in ethyl acetate, 293.25 K | 0.0415
in ethyl acetate, 298.46 K | 0.0497
in ethyl acetate, 302.88 K | 0.0618
in ethyl acetate, 307.97 K | 0.0744
in ethyl acetate, 313.22 K | 0.0885
in ethyl acetate, 317.25 K | 0.104
in ethyl acetate, 322.14 K | 0.128
in ethyl acetate, 326.93 K | 0.15
in ethylbenzene, 293.35 K | 0.0183
in ethylbenzene, 298.04 K | 0.0224
in ethylbenzene, 303.12 K | 0.0304
in ethylbenzene, 308.33 K | 0.0393
in ethylbenzene, 312.8 K | 0.0464
in ethylbenzene, 317.51 K | 0.061
in ethylbenzene, 321.25 K | 0.0719
in ethylbenzene, 326.39 K | 0.0876
in m-xylene, 293.75 K | 0.0129
in m-xylene, 298.16 K | 0.0167
in m-xylene, 303.32 K | 0.0216
in m-xylene, 307.41 K | 0.0258
in m-xylene, 313 K | 0.0332
in m-xylene, 317.53 K | 0.0398
in m-xylene, 320.55 K | 0.0453
in m-xylene, 326.39 K | 0.0614
in o-xylene, 293.35 K | 0.0281
in o-xylene, 298.08 K | 0.0343
in o-xylene, 303.11 K | 0.0406
in o-xylene, 308.23 K | 0.0454
in o-xylene, 313.09 K | 0.0525
in o-xylene, 317.05 K | 0.0603
in o-xylene, 321.94 K | 0.071
in o-xylene, 328.07 K | 0.0821
in p-xylene, 293.65 K | 0.0131
in p-xylene, 298.19 K | 0.0175
in p-xylene, 303.31 K | 0.0219
in p-xylene, 308.42 K | 0.03
in p-xylene, 313.11 K | 0.036
in p-xylene, 317.38 K | 0.0442
in p-xylene, 320.55 K | 0.0539
in p-xylene, 326.44 K | 0.0679
in toluene, 293.35 K | 0.0227
in toluene, 298.16 K | 0.0287
in toluene, 303.08 K | 0.0386
in toluene, 307.11 K | 0.0498
in toluene, 312.12 K | 0.065
in toluene, 316.4 K | 0.0798
in toluene, 320.95 K | 0.0979
in toluene, 326.54 K | 0.135
